Laboratory results published in ChEMBL document CHEMBL1201862, “PubChem BioAssay data set” (2004).
Activity calls are given as the source filed them.

Columns and labels:
Kallikrein-7 = Kallikrein-7 (Homo sapiens, UniProt P49862); assay: Fluorescence Intensity-based biochemical primary high throughput dose response assay to identify activators of kallikrein-7 (K7) zymogen.
[1] = HepG2 cell cytotoxicity, dose response, cytotoxicity control, plate reader, cherry-pick, antagonist series (AID 743416); assay type: functional, cell-based
[2] = LGR2 antagonists, dose response, cell-based, HEK293, CRE-luciferase reporter, cherry pick, set 2 (AID 743343); assay type: functional;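 also: transfected cells were stimulated with diluted bursicon conditioned medium after compound addition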
BJ [3] = assay: cells; assay type: functional, cell-based; conditions: Homo sapiens
[4] = C. albicans growth with fluconazole, confirmation, fluorescence, retest (AID 2467); assay type: functional, cell-based
Large T antigen = Large T antigen (Simian virus 40, UniProt P03070); assay type: functional, Betapolyomavirus macacae;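 also: Confirmatory-stage PubChem screen for compounds that inhibit SV40 T antigen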
Large T antigen, sequence (P03070 whole entry): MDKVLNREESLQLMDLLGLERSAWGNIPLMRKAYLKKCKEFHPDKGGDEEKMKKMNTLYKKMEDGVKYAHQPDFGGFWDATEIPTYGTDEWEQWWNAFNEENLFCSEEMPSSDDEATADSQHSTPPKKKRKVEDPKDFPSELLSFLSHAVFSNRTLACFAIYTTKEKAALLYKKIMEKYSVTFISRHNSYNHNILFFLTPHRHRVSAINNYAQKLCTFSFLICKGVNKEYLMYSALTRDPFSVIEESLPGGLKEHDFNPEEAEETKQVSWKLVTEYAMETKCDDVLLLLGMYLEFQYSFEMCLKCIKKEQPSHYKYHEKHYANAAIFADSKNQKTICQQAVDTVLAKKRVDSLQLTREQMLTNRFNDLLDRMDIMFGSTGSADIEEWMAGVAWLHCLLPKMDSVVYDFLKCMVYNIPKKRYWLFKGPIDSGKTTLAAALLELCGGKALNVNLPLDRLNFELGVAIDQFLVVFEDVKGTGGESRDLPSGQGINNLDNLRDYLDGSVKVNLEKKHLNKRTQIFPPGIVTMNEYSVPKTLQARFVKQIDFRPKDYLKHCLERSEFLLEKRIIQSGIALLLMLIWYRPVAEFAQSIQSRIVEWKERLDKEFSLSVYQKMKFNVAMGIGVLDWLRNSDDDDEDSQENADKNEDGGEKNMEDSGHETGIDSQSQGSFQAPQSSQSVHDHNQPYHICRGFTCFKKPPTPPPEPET

[5] = inhibitors of intracellular T. cruzi replication, confirmation, NIH3T3 host cells, beta-gal luminescence (AID 2044); assay type: functional, cell-based;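 also: intracellular parasites grown in NIH/3T3 mouse fibroblasts as host cells; luminescent beta-galactosidase reporter signal from transgenic T. cruzi replicating inside host cells; inhibitors lower the luminescence signal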
[6] = growth suppression of PTEN-null colon cells, dose response, cell-based, HCT116 PTEN knockout (AID 1047); assay type: functional;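 also: HCT116 colon tumor cells with PTEN knocked out; cells exposed to compound for 60 hours before readout; potency for loss of cell viability measured by luminescence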
[7] = cytotoxicity toward NIH3T3 fibroblasts, dose response, counter-screen, cell-based, ATP luminescence, mouse fibroblasts (AID 2010); assay type: functional;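 also: cells exposed to compound for about 90 hours before reading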
BJ [8] = assay: cytotoxicity toward BJ-TERT-LT-ST fibroblasts, dose response, cell-based, RAS-independent, luminescence (AID 1935); assay type: functional; conditions: Homo sapiens;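 also: BJ fibroblasts immortalized with TERT plus LT and ST oncogenes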
[9] = cytotoxicity toward DRD oncogenic fibroblasts, dose response, cell-based, non-viral oncogenic, luminescence (AID 1934); assay type: functional; conditions: Homo sapiens
[10] = molecular target: T1, Heat shock factor protein 1 (Mus musculus, UniProt P38532); assay: HSF1 potentiators in luciferase reporter cells, confirmation, cell-based, NIH3T3, luminescence, dose retest (AID 435004); assay type: functional;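 also: stress induced by proteasome inhibitor MG132 added 30 min after compound; luciferase reporter driven by HSF1 response element in NIH3T3 cells; actives raise luminescence as potentiators of the MG132 stress response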
T1 sequence (P38532 whole entry): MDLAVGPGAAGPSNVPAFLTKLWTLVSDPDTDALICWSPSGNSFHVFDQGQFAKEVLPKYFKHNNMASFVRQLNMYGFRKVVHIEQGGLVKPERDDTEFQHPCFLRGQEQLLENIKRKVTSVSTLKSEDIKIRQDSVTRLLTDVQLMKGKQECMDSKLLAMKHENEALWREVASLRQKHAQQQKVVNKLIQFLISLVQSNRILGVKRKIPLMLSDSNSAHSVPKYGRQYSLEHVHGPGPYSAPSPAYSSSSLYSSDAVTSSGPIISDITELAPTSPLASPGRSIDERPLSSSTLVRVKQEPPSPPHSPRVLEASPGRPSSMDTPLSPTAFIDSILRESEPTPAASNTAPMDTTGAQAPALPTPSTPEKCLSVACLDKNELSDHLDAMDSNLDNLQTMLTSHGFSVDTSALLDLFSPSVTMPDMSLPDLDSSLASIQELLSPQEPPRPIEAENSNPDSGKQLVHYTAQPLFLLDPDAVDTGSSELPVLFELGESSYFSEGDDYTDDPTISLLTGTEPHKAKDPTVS

[11] = molecular target: DNA damage-inducible transcript 3 protein (Mus musculus, UniProt P35639); assay type: functional, Cricetulus griseus
DNA damage-inducible transcript 3 protein, sequence (P35639 whole entry): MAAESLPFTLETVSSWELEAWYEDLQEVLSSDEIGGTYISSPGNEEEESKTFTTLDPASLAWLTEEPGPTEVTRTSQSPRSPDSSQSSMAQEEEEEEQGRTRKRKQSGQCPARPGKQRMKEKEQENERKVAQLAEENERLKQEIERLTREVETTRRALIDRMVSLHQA

X-box-binding protein 1 = molecular target: T2, X-box-binding protein 1 (Homo sapiens, UniProt P17861); assay type: functional, Cricetulus griseus;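 also: confirmatory dose-response counter-screen serving a CHOP assay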
T2 sequence (P17861 whole entry): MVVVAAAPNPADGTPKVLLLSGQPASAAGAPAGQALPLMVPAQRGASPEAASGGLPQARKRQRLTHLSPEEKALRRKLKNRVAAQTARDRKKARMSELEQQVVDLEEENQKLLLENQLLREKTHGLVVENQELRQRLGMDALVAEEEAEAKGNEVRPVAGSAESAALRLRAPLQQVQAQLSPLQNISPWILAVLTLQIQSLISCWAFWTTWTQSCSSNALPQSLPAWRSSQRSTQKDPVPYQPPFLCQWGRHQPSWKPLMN

[12] = molecular target: Heat shock protein HSP 90-alpha (Homo sapiens, UniProt P07900); assay type: functional, organism-based
Vero = assay: cells; assay type: functional; conditions: Chlorocebus sabaeus
Fatty acid synthase [13] = molecular target: T3, Fatty acid synthase (Homo sapiens, UniProt P49327); assay: FAS thioesterase domain inhibitors, dose response, biochemical, endpoint fluorescence intensity, uHTS hits (AID 624327); assay type: functional;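 also: fluorescence from hydrolysis of an O-methyl fluorescein acyl ester substrate by the enzyme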
T3 sequence (P49327 whole entry, the tested form may be a part): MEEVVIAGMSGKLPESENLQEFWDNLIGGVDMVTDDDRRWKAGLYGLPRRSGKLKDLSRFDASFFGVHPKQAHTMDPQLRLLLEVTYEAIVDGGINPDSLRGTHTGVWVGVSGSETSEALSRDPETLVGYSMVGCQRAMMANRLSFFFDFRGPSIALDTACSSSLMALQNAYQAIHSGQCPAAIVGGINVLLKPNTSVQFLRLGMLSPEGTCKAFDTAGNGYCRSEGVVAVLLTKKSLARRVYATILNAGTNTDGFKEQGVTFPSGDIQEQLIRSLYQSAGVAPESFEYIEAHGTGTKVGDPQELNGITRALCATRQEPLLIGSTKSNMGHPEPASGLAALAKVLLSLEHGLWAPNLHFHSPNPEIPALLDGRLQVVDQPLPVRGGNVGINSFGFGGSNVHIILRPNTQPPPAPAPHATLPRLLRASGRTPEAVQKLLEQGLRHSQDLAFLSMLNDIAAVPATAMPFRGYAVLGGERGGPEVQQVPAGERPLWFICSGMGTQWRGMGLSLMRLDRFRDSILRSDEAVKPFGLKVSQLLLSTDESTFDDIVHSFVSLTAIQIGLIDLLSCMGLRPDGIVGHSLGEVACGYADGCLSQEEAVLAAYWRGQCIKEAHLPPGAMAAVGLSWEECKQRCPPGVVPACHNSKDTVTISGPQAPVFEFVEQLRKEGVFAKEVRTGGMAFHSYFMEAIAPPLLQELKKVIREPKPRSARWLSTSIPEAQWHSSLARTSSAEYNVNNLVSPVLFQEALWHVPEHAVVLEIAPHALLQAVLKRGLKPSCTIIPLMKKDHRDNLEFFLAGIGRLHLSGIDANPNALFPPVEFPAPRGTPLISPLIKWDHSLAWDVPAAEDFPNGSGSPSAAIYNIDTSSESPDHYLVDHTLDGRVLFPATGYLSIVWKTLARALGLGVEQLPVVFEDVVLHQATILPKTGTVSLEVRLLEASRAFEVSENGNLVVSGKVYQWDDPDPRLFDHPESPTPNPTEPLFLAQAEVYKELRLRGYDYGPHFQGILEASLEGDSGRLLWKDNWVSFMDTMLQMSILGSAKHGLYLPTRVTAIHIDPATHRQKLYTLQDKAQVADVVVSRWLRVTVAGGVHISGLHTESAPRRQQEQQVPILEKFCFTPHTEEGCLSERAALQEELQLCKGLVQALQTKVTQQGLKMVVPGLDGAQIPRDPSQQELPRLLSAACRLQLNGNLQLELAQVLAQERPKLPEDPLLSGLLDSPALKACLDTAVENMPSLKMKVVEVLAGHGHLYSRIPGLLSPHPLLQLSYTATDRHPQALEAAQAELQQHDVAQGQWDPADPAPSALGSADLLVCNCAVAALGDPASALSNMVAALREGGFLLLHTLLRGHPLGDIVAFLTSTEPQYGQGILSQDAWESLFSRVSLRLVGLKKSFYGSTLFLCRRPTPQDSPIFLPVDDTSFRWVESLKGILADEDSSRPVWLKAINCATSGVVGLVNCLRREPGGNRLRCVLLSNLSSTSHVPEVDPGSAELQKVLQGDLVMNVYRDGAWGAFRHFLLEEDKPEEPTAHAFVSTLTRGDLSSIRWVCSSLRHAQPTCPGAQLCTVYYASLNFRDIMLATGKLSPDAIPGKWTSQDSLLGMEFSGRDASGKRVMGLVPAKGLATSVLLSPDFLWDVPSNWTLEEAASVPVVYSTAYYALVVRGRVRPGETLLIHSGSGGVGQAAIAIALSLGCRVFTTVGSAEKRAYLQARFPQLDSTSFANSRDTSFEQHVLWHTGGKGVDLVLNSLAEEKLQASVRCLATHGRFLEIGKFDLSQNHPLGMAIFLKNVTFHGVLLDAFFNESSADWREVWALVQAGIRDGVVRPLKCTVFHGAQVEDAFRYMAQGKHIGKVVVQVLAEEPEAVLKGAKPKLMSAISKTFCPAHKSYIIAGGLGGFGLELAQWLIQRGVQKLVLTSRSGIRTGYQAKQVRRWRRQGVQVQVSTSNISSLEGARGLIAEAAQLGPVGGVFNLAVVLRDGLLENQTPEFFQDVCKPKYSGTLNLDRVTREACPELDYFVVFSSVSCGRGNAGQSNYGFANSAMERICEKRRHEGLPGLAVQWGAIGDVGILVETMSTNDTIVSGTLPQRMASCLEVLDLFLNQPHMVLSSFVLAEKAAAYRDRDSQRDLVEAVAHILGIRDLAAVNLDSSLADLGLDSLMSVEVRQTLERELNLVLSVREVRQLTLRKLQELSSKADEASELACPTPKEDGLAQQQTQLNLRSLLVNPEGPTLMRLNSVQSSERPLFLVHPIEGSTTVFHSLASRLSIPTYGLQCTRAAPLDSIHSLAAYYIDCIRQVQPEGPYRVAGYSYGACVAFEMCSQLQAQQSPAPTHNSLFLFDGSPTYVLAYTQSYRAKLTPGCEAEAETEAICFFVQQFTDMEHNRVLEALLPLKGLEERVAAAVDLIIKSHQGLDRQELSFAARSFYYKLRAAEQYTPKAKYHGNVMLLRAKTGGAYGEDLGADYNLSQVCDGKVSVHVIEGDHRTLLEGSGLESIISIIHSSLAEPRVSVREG

Fatty acid synthase [14] = molecular target: T3, Fatty acid synthase; assay: FAS thioesterase domain inhibitors, dose response, biochemical, kinetic fluorescence intensity (AID 624326); assay type: functional;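 also: rate of fluorescence rise from hydrolysis of a fluorogenic O-methyl fluorescein ester substrate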
[15] = THP-1 cell cytotoxicity, dose response, cytotoxicity control for Vif-APOBEC3G degradation inhibitor project, THP-1 cells (AID 1117359); assay type: functional; conditions: Human immunodeficiency virus 1, THP-1
[16] = inhibitors of Vif binding to APOBEC3G peptide, primary screen, biochemical, TR-FRET, GST-Vif 1-94, biotin-A3G peptide, dose response retest (AID 1117319); assay type: functional;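 also: TR-FRET signal of purified GST-Vif binding a biotinylated A3G peptide; inhibitors lower the FRET signal by blocking Vif and A3G binding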
HEK293 = assay: cells; conditions: Homo sapiens
[17] = molecular target: T4, Lysine-specific demethylase 4C (Homo sapiens, UniProt Q9H3R0); assay: GASC-1 (JMJD2C) histone demethylase inhibitors, dose response, biochemical, DELFIA europium, cherry-picked samples (AID 488835); assay type: functional
T4 sequence (Q9H3R0 whole entry): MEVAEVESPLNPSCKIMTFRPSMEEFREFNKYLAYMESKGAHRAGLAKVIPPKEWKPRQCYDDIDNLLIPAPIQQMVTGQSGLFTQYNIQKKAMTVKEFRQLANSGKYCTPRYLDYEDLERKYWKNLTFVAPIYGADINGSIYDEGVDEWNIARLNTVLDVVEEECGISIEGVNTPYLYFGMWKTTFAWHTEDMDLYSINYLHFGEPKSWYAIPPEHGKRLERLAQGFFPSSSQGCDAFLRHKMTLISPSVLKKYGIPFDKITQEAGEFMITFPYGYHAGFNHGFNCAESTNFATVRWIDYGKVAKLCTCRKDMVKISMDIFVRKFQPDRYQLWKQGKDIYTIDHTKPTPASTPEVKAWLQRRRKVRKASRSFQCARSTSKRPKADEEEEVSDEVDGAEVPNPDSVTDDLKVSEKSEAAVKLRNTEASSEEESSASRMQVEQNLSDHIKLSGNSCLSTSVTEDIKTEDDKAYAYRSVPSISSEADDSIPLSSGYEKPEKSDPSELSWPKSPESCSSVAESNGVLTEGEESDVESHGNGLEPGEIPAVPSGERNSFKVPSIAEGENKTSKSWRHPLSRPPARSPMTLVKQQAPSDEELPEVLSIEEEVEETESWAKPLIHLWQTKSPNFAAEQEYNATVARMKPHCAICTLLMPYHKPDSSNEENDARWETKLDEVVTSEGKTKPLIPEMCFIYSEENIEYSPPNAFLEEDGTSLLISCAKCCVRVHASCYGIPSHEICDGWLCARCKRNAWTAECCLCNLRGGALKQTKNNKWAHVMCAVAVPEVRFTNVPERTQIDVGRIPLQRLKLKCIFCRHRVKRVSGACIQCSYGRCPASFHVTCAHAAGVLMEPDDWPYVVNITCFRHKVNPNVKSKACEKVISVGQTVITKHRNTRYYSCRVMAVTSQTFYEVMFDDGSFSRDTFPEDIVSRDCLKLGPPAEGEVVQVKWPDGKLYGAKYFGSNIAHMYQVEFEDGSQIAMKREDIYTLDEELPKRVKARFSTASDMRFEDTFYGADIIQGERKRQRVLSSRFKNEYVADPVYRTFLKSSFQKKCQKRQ

Kallikrein-7, sequence (P49862 whole entry): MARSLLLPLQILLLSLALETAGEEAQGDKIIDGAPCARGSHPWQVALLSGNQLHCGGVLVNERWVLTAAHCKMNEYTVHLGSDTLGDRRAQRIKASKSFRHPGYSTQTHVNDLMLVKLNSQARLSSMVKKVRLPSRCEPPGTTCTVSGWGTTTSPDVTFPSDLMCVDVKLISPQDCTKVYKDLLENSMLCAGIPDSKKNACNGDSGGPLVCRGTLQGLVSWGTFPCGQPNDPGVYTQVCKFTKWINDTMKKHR

With `O=c1[nH]c(N2CCOCC2)cc2ccccc12` the EC50 (Kallikrein-7) was > 69.6 µM (inactive).

For `CCC(COC)Oc1cc(NCc2ccccc2)c2ncn(C(C)C)c2c1` (centres undefined), the AC50 [1] was 19.6 µM (active) and the AC50 [2] was 23.1 µM (active).

In the case of `O=[N+]([O-])c1ccc(Sc2nc3ccccc3o2)c([N+](=O)[O-])c1`, the EC50 (BJ [3]) is reported as 8.14 µM (active), the EC50 [4] is reported as 1.37 µM (active) and the IC50 (Large T antigen) is reported as 84.9 µM (active). The EC50 [5] was 1.27 µM (active), the EC50 [6] was 6.88 µM (active) and the EC50 [7] was 1.81 µM (active). For the same compound, the EC50 (BJ [8]) was 5.55 µM (active), the EC50 [9] was 4.54 µM (inconclusive) and the EC50 [10] was 11.7 µM (active). The “Absolute IC50 (CHOP)” value [11] was 10 µM, the “Absolute IC50 (XBP1)” value (X-box-binding protein 1) was 10 µM and the AC50 [12] was 2.22 µM (active). For the same compound, the CC50 (Vero) was 4.12 µM (active), the IC50 (Fatty acid synthase [13]) was 15.8 µM (active) and the IC50 (Fatty acid synthase [14]) was 10.1 µM (active). For the same compound, the AC50 [1] was 6.16 µM (active), the AC50 [2] was 24.9 µM (active) and the CC50 [15] was 2.46 µM (active). The IC50 [16] was > 100 µM (active) and the EC50 (HEK293) was > 59.6 µM (inactive).

In the case of `O=C1c2ccccc2C(=O)C12OC2c1cccc2ccccc12` (centres undefined), the AC50 [17] is reported as 6.61 µM (active).
